From patent publication US20180148418A1, “AMIDO-SUBSTITUTED CYCLOHEXANE DERIVATIVES” (Bayer Pharma Aktiengesellschaft, priority 2015, published 2018)
pIC50: −log10 of the molar value.

Legend:
[1] = test system: HEK293 cells cotransfected with the FOP control vector; experiment: HEK293 FOP assay (control reporter with non-functional TCF elements); type: cell-based; settings: Homo sapiens, 16 hours
Outline: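 Stable HEK293 line carrying FOP control reporter (randomized non-functional TCF sites, with pcDNA3), Geneticin-selected, plated 24 h before assay. Stimulated with recombinant human Wnt-3a (2500-5 ng/ml) and compounds 50 μM–15 nM (3.16-fold steps) in CAFTY buffer pH 7.4 with 2 mM Ca2+, 0.01% BSA, run parallel to TOP line.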

TNKS2 = biological target: T1, TNKS2 (Homo sapiens, UniProt Q9H2K2); experiment: TNKS2 Assay B (auto-parsylation, [3H]-NAD+ SPA); type: biochemical; settings: 6 nM TNKS2, auto-parsylation, over night at room temperature
T1 construct: purchased BPS Bioscience, San Diego, USA 80572 (TNKS2 Histone Ribosylation Assay Kit)
T1 sequence (Q9H2K2 1-1166): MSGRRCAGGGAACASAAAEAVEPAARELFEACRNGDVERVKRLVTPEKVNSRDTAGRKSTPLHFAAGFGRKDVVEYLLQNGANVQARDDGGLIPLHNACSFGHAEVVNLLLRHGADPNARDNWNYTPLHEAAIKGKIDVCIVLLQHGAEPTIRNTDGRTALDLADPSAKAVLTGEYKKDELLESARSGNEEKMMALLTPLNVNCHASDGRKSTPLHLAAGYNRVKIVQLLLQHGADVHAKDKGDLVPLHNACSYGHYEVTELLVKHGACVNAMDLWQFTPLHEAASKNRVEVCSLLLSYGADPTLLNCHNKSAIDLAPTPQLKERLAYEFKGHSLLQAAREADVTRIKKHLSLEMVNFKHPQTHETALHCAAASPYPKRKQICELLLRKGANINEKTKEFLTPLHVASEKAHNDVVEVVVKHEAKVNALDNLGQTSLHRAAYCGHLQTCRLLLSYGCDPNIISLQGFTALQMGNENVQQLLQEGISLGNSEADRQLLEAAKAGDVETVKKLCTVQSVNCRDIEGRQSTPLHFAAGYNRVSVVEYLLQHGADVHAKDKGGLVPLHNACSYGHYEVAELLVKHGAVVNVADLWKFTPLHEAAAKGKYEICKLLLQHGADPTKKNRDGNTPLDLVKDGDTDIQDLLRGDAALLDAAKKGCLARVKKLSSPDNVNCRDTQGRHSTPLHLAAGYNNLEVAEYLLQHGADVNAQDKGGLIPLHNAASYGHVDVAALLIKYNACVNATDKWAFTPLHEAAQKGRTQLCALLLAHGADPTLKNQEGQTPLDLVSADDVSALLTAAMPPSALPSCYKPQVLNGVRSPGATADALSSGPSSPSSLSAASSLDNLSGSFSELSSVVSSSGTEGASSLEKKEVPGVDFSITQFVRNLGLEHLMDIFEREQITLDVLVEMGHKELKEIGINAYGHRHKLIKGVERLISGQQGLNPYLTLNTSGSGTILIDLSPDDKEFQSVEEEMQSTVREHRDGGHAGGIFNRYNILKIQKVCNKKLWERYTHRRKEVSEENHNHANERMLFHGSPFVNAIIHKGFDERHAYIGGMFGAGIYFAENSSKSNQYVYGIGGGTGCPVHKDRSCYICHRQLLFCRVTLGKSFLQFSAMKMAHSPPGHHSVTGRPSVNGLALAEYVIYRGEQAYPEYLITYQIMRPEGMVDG

[2] = test system: wildtype Wnt signaling cascade; experiment: HEK293 TOP assay (Super TopFlash luciferase reporter, Wnt-3a stimulated); type: cell-based; settings: Homo sapiens, HEK293 TOP reporter cells, Wnt3a at EC50, 16 hours
Outline: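 HEK293 cells stably carrying Super TopFlash (TOP) run in parallel with FOP cells, 10000/well plated 24 h ahead, stimulated with recombinant human Wnt-3a. Compounds tested 50 μM to 15 nM in 3.16-fold steps in CAFTY buffer pH 7.4 with 2 mM Ca^2+ and 0.01% BSA; luciferase read-out.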

Row | Structure (SMILES) | pIC50 (TNKS2) | pIC50 ([2]; HEK293, 16 h) | pIC50 [1] | pIC50 [2]
1 | Cc1cc(C2CC2)n2ncc(C(=O)N[C@H]3CC[C@H](C(=O)Nc4ccc(F)cc4Cl)CC3)c2n1 [Example 204, N-{trans-4-[(2-chloro-4-fluorophenyl)carbamoyl]cyclohexyl}-7-cyclopropyl-5-methylpyrazolo[1,5-a]pyrimidine-3-carboxamide] | 6.80 | 7.32 | ≤ 4.30 | 
2 | O=C(N[C@H]1CC[C@H](C(=O)Nc2ccc(F)cc2Cl)CC1)c1n[nH]c2ccccc12 [Example 253, N-{trans-4-[(2-chloro-4-fluorophenyl)carbamoyl]cyclohexyl}-1H-indazole-3-carboxamide] | < 5.00 | 4.70 | 4.72 | 
3 | CC(C)n1nc(C(=O)N[C@H]2CC[C@@]3(CCN(c4ccc(F)cc4Cl)C3=O)CC2)c2ccc(Br)cc21 [Example 319, 6-bromo-N-[(trans)-2-(2-chloro-4-fluorophenyl)-1-oxo-2-azaspiro[4.5]dec-8-yl]-1-isopropyl-1H-indazole-3-carboxamide] | < 5.00 |  | ≤ 4.30 | ≤ 4.30
4 | Cc1c(C(C)N(C)C)cnc2c(C(=O)N[C@H]3CC[C@@]4(CCN(c5ccc(F)cc5Cl)C4=O)CC3)cnn12 (mixture of isomers) [Example 358, N-[(trans)-2-(2-chloro-4-fluorophenyl)-1-oxo-2-azaspiro[4.5]dec-8-yl]-6-[1-(dimethylamino)ethyl]-7-methylpyrazolo[1,5-a]pyrimidine-3-carboxamide (racemate)] | 7.39 | 8.24 | ≤ 4.30 | 
5 | O=C(N[C@H]1CC[C@]2(CCN(c3ccc(F)cc3Cl)C2=O)CC1)c1[nH]cnc1C(=O)N1CC(F)C1 [Example 340, N-[(cis)-2-(2-chloro-4-fluorophenyl)-1-oxo-2-azaspiro[4.5]dec-8-yl]-4-[(3-fluoroazetidin-1-yl)carbonyl]-1H-imidazole-5-carboxamide] | 6.07 | 7.11 | 4.60 | 
6 | CNC(=O)c1nc[nH]c1C(=O)N[C@H]1CC[C@@]2(CCCN(c3ccc(F)cc3Cl)C2=O)CC1 [Example 159] | 6.89 | 7.85 | ≤ 4.30 | 
7 | Cc1cc(C)n2ncc(C(=O)N[C@H]3CC[C@]4(CCN(c5ccc(F)cc5Cl)C4=O)CC3)c2n1 [Example 207, N-[(cis)-2-(2-chloro-4-fluorophenyl)-1-oxo-2-azaspiro[4.5]dec-8-yl]-5,7-dimethylpyrazolo[1,5-a]pyrimidine-3-carboxamide] | < 5.00 | 5.46 | ≤ 4.30 | 
8 | CCNC(=O)c1nc[nH]c1C(=O)N[C@H]1CC[C@@]2(CCCN(c3cc(C)c(F)cc3Cl)C2=O)CC1 [Example 305, N^5-[(trans)-2-(2-chloro-4-fluoro-5-methylphenyl)-1-oxo-2-azaspiro[5.5]undec-9-yl]-N^4-ethyl-1H-imidazole-4,5-dicarboxamide] | 7.19 | 8.09 | ≤ 6.30 | 
9 | COCCNC(=O)c1nc[nH]c1C(=O)N[C@H]1CC[C@@]2(CCCN(c3cc(C)c(F)cc3Cl)C2=O)CC1 [Example 306, N^5-[(trans)-2-(2-chloro-4-fluoro-5-methylphenyl)-1-oxo-2-azaspiro[5.5]undec-9-yl]-N^4-(2-methoxyethyl)-1H-imidazole-4,5-dicarboxamide] | 7.17 | 7.92 | ≤ 6.30 | 

Further compounds by rising pIC50 (TNKS2), results first:

Row | pIC50 (TNKS2) | pIC50 ([2]; HEK293, 16 h) | Structure (SMILES) | pIC50 [1] | pIC50 [2]
10 | 7.39 | 7.52 | Cc1cc(N2CCC[C@]3(CC[C@@H](NC(=O)c4[nH]cnc4C(=O)N4CC5(COC5)C4)CC3)C2=O)c(Cl)cc1F [Example 311, N-[(trans)-2-(2-chloro-4-fluoro-5-methylphenyl)-1-oxo-2-azaspiro[5.5]undec-9-yl]-4-(2-oxa-6-azaspiro[3.3]hept-6-ylcarbonyl)-1H-imidazole-5-carboxamide] | ≤ 4.30 | 
11 | 7.49 | 7.85 | Cc1cc(N2CCC[C@]3(CC[C@@H](NC(=O)c4[nH]cnc4C(=O)N4CC(F)C4)CC3)C2=O)c(Cl)cc1F [Example 303, N-[(trans)-2-(2-chloro-4-fluoro-5-methylphenyl)-1-oxo-2-azaspiro[5.5]undec-9-yl]-4-[(3-fluoroazetidin-1-yl)carbonyl]-1H-imidazole-5-carboxamide] | ≤ 6.30 | 
12 | 7.66 | 8.20 | O=C(N[C@H]1CC[C@@]2(CCCN(c3cc(F)c(F)cc3Cl)C2=O)CC1)c1cnc2cccnn12 [Example 314, N-[(trans)-2-(2-chloro-4,5-difluorophenyl)-1-oxo-2-azaspiro[5.5]undec-9-yl]imidazo[1,2-b]pyridazine-3-carboxamide] | ≤ 6.30 | 
13 | 7.96 | 8.57 | O=C(N[C@H]1CC[C@@]2(CCN(c3ccccc3Cl)C2=O)CC1)c1[nH]cnc1C(=O)N1CC2(COC2)C1 [Example 263, N-[(trans)-2-(2-chlorophenyl)-1-oxo-2-azaspiro[4.5]dec-8-yl]-4-(2-oxa-6-azaspiro[3.3]hept-6-ylcarbonyl)-1H-imidazole-5-carboxamide] | ≤ 4.30 | 
14 | 8.00 | 8.59 | COCc1cc(C)n2ncc(C(=O)N[C@H]3CC[C@@]4(CCN(c5ccc(F)cc5Cl)C4=O)CC3)c2n1 [Example 220, N-[(trans)-2-(2-chloro-4-fluorophenyl)-1-oxo-2-azaspiro[4.5]dec-8-yl]-5-(methoxymethyl)-7-methylpyrazolo[1,5-a]pyrimidine-3-carboxamide] | 4.42 | 
15 | 8.04 | 9.00 | Cc1cc(N2CC[C@]3(CC[C@@H](NC(=O)c4[nH]cnc4C(=O)NC4CC4)CC3)C2=O)c(Cl)cc1F [Example 295, N^5-[(trans)-2-(2-chloro-4-fluoro-5-methylphenyl)-1-oxo-2-azaspiro[4.5]dec-8-yl]-N^4-cyclopropyl-1H-imidazole-4,5-dicarboxamide] | 4.92 | 
16 | 8.08 | 8.47 | CC1C[C@]2(CC[C@@H](NC(=O)c3cnn4cccnc34)CC2)C(=O)N1c1ccc(F)cc1Cl (mixture of isomers) [Example 355, N-[(trans)-2-(2-chloro-4-fluorophenyl)-3-methyl-1-oxo-2-azaspiro[4.5]dec-8-yl]pyrazolo[1,5-a]pyrimidine-3-carboxamide (mixture of isomers at C3)] | ≤ 4.30 | 
17 | 8.12 | 8.25 | COCc1cc(C)nc2c(C(=O)N[C@H]3CC[C@@]4(CCN(c5ccc(F)cc5Cl)C4=O)CC3)cnn12 [Example 219, N-[(trans)-2-(2-chloro-4-fluorophenyl)-1-oxo-2-azaspiro[4.5]dec-8-yl]-7-(methoxymethyl)-5-methylpyrazolo[1,5-a]pyrimidine-3-carboxamide] | ≤ 6.30 | 
18 | 8.25 | 9.52 | O=C(N[C@H]1CC[C@@]2(CCN(c3ccc(F)cc3Cl)C2=O)CC1)c1[nH]cnc1C(=O)N1CC(F)(F)C1 [Example 189, N-[(trans)-2-(2-chloro-4-fluorophenyl)-1-oxo-2-azaspiro[4.5]dec-8-yl]-4-[(3,3-difluoroazetidin-1-yl)carbonyl]-1H-imidazole-5-carboxamide] | 5.01 | 
19 | 8.28 | 9.68 | O=C(N[C@H]1CC[C@@]2(CCN(c3ccc(F)cc3Cl)C2=O)CC1)c1[nH]cnc1C(=O)N1CC(O)C1 [Example 192, N-[(trans)-2-(2-chloro-4-fluorophenyl)-1-oxo-2-azaspiro[4.5]dec-8-yl]-4-[(3-hydroxyazetidin-1-yl)carbonyl]-1H-imidazole-5-carboxamide] | ≤ 4.30 | 
